Earlier results as cited in patent publication US20110097427A1, “Molecular Targets and Dietary Modulators of Exercise-Induced Muscle Damage” (priority 2009, published 2011).

Conditions: Risérus et al., 2008, Diabetes 57: 332-339

Cc1cc(SCc2sc(-c3ccc(C(F)(F)F)cc3)nc2C)ccc1OCC(=O)O [GW501516]
urinary isoprostanes: reduced
